Measured values from patent US10927111B2, “Inhibitors of RAF kinases” (Kinnate Biopharma Inc., priority 2019, dated 2021).
Like-named read-outs stand apart in the source and are kept apart here.

Molecular target: human RAF1 (Homo sapiens (Human), UniProt P04049)
Assay: Protein kinase assay (radiometric 33P-ATP, MEK1 (K97R) substrate)
Assay type: biochemical
Conditions: read-out: RAF-1 IC50
Method: Protein kinase assay: Assay platform was used to measure kinase/inhibitor interactions as described previously (Anastassiadis et al., 2011). In brief, for each reaction, kinase and substrate were mixed in a buffer containing 20 mM HEPES (pH 7.5), 10 mM MgCl2, 1 mM EGTA, 0.02% Brij35, 0.02 mg/mL BSA, 0.1 mM Na3VO4, 2 mM DTT, and 1% DMSO. All compounds were solubilized in DMSO. Compounds were then added to each reaction mixture via acoustic dispense using an ECHO 550 nanoliter dispenser. For human RAF1 testing, human MEK1 (K97R) was used as a substrate at a concentration of 3 micromolar, with a final ATP concentration of 10 micromolar. For human BRAF testing, human MEK1 (K97R) was used as a substrate at 1 micromolar concentration, with a final ATP concentration of 25 micromolar. […] After a 20-min incubation, ATP (Sigma-Aldrich, St. Louis, Mo. 63178) and [g33P] ATP (specific activity 10 microCi/microliter) purchased at PerkinElmer (Boston, Mass., 02118 Cat #BLU 003H250UC) were added at a final total concentration of 10 mM. Reactions were carried out at room temperature for 2 hr and spotted onto P81 ionexchange cellulose chromatography paper (Reaction Biology). Filter paper was washed in 0.75% phosphoric acid to remove unincorporated ATP. The percent remaining kinase activity relative to a vehicle-containing (DMSO) kinase reaction was calculated for each kinase/inhibitor pair. IC50 values were calculated using Prism 5 (GraphPad).

[1] = human MEK1 (K97R) substrate 3 micromolar, ATP 10 micromolar, 10-dose IC50 mode

Chain of human RAF1 (P04049 whole entry): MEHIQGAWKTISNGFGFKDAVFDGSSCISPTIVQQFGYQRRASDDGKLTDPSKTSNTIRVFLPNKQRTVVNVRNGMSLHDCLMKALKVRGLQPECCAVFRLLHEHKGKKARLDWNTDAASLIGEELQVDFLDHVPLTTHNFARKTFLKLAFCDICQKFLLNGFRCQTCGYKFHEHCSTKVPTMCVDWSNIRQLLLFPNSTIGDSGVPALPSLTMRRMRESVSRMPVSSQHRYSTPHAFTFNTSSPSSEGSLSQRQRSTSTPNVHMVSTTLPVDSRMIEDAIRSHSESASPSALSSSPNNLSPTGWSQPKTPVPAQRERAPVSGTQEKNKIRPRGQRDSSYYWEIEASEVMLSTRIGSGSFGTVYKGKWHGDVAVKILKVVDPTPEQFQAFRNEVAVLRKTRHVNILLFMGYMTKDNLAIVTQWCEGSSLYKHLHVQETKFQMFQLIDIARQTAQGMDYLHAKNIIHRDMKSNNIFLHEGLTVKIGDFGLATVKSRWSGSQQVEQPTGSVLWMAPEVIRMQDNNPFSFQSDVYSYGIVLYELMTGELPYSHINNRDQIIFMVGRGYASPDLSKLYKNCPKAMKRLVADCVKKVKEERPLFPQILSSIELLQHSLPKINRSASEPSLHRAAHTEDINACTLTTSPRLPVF

SMILES | IC50 [1] [nM] | IC50 [nM]
[2H]C([2H])([2H])Nc1ncc2cc(-c3cc(NC(=O)c4ccnc(C(F)(F)F)c4)ccc3C)c(C)nc2n1 [Example 43, N-(4-methyl-3-(7-methyl-2-((trideuteromethyl)amino)pyrido[2,3-d]pyrimidin-6-yl)phenyl)-2-(trifluoromethyl)isonicotinamide] |  | ≤ 10
CNc1ncc2cc(-c3cc(NC(=O)c4ccnc(C(F)(F)F)c4)cnc3C)cnc2n1 [Example 46, N-(6-methyl-5-(2-(methylamino)pyrido[2,3-d]pyrimidin-6-yl)pyridin-3-yl)-2-(trifluoromethyl)isonicotinamide] | ≤ 10 | 
CNc1ncc2cc(-c3cc(NC(=O)c4cccc(C(F)(F)F)c4C)cnc3C)cnc2n1 [Example 47, 2-methyl-N-(6-methyl-5-(2-(methylamino)pyrido[2,3-d]pyrimidin-6-yl)pyridin-3-yl)-3-(trifluoromethyl)benzamide] | ≤ 10 | 
Cc1ccc(NC(=O)c2ccnc(C(F)(F)F)c2)cc1-c1cc2cnc(N)nc2nc1C [Example 48, N-(3-(2-amino-7-methylpyrido[2,3-d]pyrimidin-6-yl)-4-methylphenyl)-2-(trifluoromethyl)isonicotinamide] | ≤ 10 | 
Cc1ccc(NC(=O)c2ccnc(C(F)(F)F)c2)cc1-c1cc2cnc(NC(=O)C3CC3)nc2nc1C [Example 49, N-(3-(2-(cyclopropanecarboxamido)-7-methylpyrido[2,3-d]pyrimidin-6-yl)-4-methylphenyl)-2-(trifluoromethyl)isonicotinamide] | ≤ 10 | 
CNc1ncc2cc(-c3cc(NC(=O)c4cnnc(C(F)(F)F)c4)ccc3C)c(C)nc2n1 [Example 50, N-(4-methyl-3-(7-methyl-2-(methylamino)pyrido[2,3-d]pyrimidin-6-yl)phenyl)-6-(trifluoromethyl)pyridazine-4-carboxamide] | ≤ 10 | 
CNc1ncc2cc(-c3cc(NC(=O)N4CC[C@@H](OCC(F)(F)F)C4)c(F)cc3C)c(C)nc2n1 [Example 51, (3R)-N-[2-fluoro-4-methyl-5-[7-methyl-2-(methylamino)pyrido[2,3-d]pyrimidin-6-yl]phenyl]-3-(2,2,2-trifluoroethoxy)pyrrolidine-1-carboxamide] | ≤ 10 | 
CNc1ncc2cc(-c3cc(NC(=O)c4ccnc(C(C)(F)F)c4)ccc3C)c(C)nc2n1 [Example 52, 2-(1,1-difluoroethyl)-N-[4-methyl-3-[7-methyl-2-(methylamino)pyrido[2,3-d]pyrimidin-6-yl]phenyl]pyridine-4-carboxamide] | ≤ 10 | 
CNc1ncc2cc(-c3cc(NC(=O)c4ccnc(C(F)(F)F)c4)ccc3C)cnc2n1 [Example 53, N-[4-methyl-3-[2-(methylamino)pyrido[2,3-d]pyrimidin-6-yl]phenyl]-2-(trifluoromethyl)pyridine-4-carboxamide] | ≤ 10 | 
CNc1ncc2cc(-c3cc(NC(=O)N4CC[C@H](OC(F)(F)F)C4)ccc3C)cnc2n1 [Example 56, 3S-N-[4-methyl-3-[2-(methylamino)pyrido[2,3-d]pyrimidin-6-yl]phenyl]-3-(trifluoromethoxy)pyrrolidine-1-carboxamide] | ≤ 10 | 
CNc1ncc2cc(-c3cc(NC(=O)N4CCO[C@H](C(F)(F)F)C4)ccc3C)cnc2n1 [Example 57] | ≤ 10 | 
CNc1ncc2cc(-c3cc(NC(=O)N4CC[C@H](OC(F)(F)F)C4)c(F)cc3C)cnc2n1 [Example 59] | ≤ 10 | 

Now from value to compound:

IC50 [1] [nM] | IC50 [nM] | SMILES
≤ 10 |  | CNc1ncc2cc(-c3cc(NC(=O)c4cncc(C(F)(F)F)c4)ccc3C)c(C)nc2n1 [Example 32, N-(4-methyl-3-(7-methyl-2-(methylamino)pyrido[2,3-d]pyrimidin-6-yl)phenyl)-5-(trifluoromethyl)nicotinamide]
≤ 10 |  | CNc1ncc2cc(-c3cc(NC(=O)c4ccnc(C(F)(F)F)c4Cl)ccc3C)c(C)nc2n1 [Example 33, 3-chloro-N-(4-methyl-3-(7-methyl-2-(methylamino)pyrido[2,3-d]pyrimidin-6-yl)phenyl)-2-(trifluoromethyl)isonicotinamide]
≤ 10 |  | CNc1ncc2cc(-c3cc(NC(=O)c4cc(C)nc(C(F)(F)F)c4)ccc3C)c(C)nc2n1 [Example 34, 2-methyl-N-(4-methyl-3-(7-methyl-2-(methylamino)pyrido[2,3-d]pyrimidin-6-yl)phenyl)-6-(trifluoromethyl)isonicotinamide]
≤ 10 |  | CCNc1ncc2cc(-c3cc(NC(=O)c4ccnc(C(F)(F)F)c4)ccc3C)c(C)nc2n1 [Example 35, N-(3-(2-(ethylamino)-7-methylpyrido[2,3-d]pyrimidin-6-yl)-4-methylphenyl)-2-(trifluoromethyl)isonicotinamide]
≤ 10 |  | CCc1nc2nc(NC)ncc2cc1-c1cc(NC(=O)c2ccnc(C(F)(F)F)c2)ccc1C [Example 36, N-(3-(7-ethyl-2-(methylamino)pyrido[2,3-d]pyrimidin-6-yl)-4-methylphenyl)-2-(trifluoromethyl)isonicotinamide]
≤ 10 |  | Cc1ccc(NC(=O)c2ccnc(C(F)(F)F)c2)cc1-c1cc2cnc(NC3CC3)nc2nc1C [Example 37, N-(3-(2-(cyclopropylamino)-7-methylpyrido[2,3-d]pyrimidin-6-yl)-4-methylphenyl)-2-(trifluoromethyl)isonicotinamide]
≤ 10 |  | Cc1ccc(NC(=O)c2ccnc(C(F)(F)F)c2)cc1-c1cc2cnc(NCCN3CCOCC3)nc2nc1C [Example 38, N-(4-methyl-3-(7-methyl-2-((2-morpholinoethyl)amino)pyrido[2,3-d]pyrimidin-6-yl)phenyl)-2-(trifluoromethyl)isonicotinamide]
≤ 10 |  | Cc1ccc(NC(=O)c2ccnc(C(F)(F)F)c2)cc1-c1cc2cnc(NCCN3CCCC3)nc2nc1C [Example 39, N-(4-methyl-3-(7-methyl-2-((2-(pyrrolidin-1-yl)ethyl)amino)pyrido[2,3-d]pyrimidin-6-yl)phenyl)-2-(trifluoromethyl)isonicotinamide]
≤ 10 |  | Cc1ccc(NC(=O)c2ccnc(C(F)(F)F)c2)cc1-c1cc2cnc(NCCO)nc2nc1C [Example 40, N-(3-(2-((2-hydroxyethyl)amino)-7-methylpyrido[2,3-d]pyrimidin-6-yl)-4-methylphenyl)-2-(trifluoromethyl)isonicotinamide]
≤ 10 |  | CNc1ncc2cc(-c3cc(NC(=O)c4ccnc(C(F)(F)F)c4C)ccc3C)c(C)nc2n1 [Example 41, 3-methyl-N-(4-methyl-3-(7-methyl-2-(methylamino)pyrido[2,3-d]pyrimidin-6-yl)phenyl)-2-(trifluoromethyl)isonicotinamide]
≤ 10 |  | Cc1ccc(NC(=O)c2ccnc(C(F)(F)F)c2)cc1-c1cc2cnc(NC3CCN(C)CC3)nc2nc1C [Example 42, N-(4-methyl-3-(7-methyl-2-((1-methylpiperidin-4-yl)amino)pyrido[2,3-d]pyrimidin-6-yl)phenyl)-2-(trifluoromethyl)isonicotinamide]
≤ 10 |  | CNc1ncc2cc(-c3cc(NC(=O)c4cccc(C(F)(F)F)c4)cnc3C)c(C)nc2n1 [Example 44, N-(6-methyl-5-(7-methyl-2-(methylamino)pyrido[2,3-d]pyrimidin-6-yl)pyridin-3-yl)-3-(trifluoromethyl)benzamide]
≤ 10 |  | CNc1ncc2cc(-c3cc(NC(=O)c4cccc(C(F)(F)F)c4)cnc3C)cnc2n1 [Example 45, N-(6-methyl-5-(2-(methylamino)pyrido[2,3-d]pyrimidin-6-yl)pyridin-3-yl)-3-(trifluoromethyl)benzamide]
